System: 439559-082-T-J2-PDC spheroids viability
Experiment: Anticancer human tumor 439559-082-T-J2-PDC patient-derived colon adenocarcinoma cell line growth inhibition [GQUAD]
Conditions: for IC50: curve of first compound; for viability, T/C: stronger effect = lower value
Method in brief: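 Viability of tumor cells grown as complex spheroids with endothelial and stromal cells, exposed to drug combinations. Top concentration at or near clinical Cmax (else 10 microM), diluted in half-log increments.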

[1] = second compound 0.0316 µM, first compound 0.000999 µM
[2] = second compound 0.0316 µM, first compound 0.00316 µM
[3] = second compound 0.0316 µM, first compound 0.00999 µM
[4] = second compound 0.0316 µM, first compound 0.0316 µM
[5] = second compound 0.0316 µM, first compound 0.0999 µM
[6] = second compound 0.0316 µM, first compound 0.316 µM
[7] = second compound 0.1 µM, first compound 0.000999 µM
[8] = second compound 0.1 µM, first compound 0.00316 µM
[9] = second compound 0.1 µM, first compound 0.00999 µM
[10] = second compound 0.1 µM, first compound 0.0316 µM
[11] = second compound 0.1 µM, first compound 0.0999 µM
[12] = second compound 0.1 µM, first compound 0.316 µM
[13] = second compound 0.316 µM, first compound 0.000999 µM
[14] = second compound 0.316 µM, first compound 0.00316 µM
[15] = second compound 0.316 µM, first compound 0.00999 µM
[16] = second compound 0.316 µM, first compound 0.0316 µM
[17] = second compound 0.316 µM, first compound 0.0999 µM
[18] = second compound 0.316 µM, first compound 0.316 µM
[19] = second compound 1 µM, first compound 0.000999 µM
[20] = second compound 1 µM, first compound 0.00316 µM
[21] = second compound 1 µM, first compound 0.00999 µM
[22] = second compound 1 µM, first compound 0.0316 µM
[23] = second compound 1 µM, first compound 0.0999 µM
[24] = second compound 1 µM, first compound 0.316 µM
[25] = second compound 3.16 µM, first compound 0.000999 µM
[26] = second compound 3.16 µM, first compound 0.00316 µM
[27] = second compound 3.16 µM, first compound 0.00999 µM
[28] = second compound 3.16 µM, first compound 0.0316 µM
[29] = second compound 3.16 µM, first compound 0.0999 µM
[30] = second compound 3.16 µM, first compound 0.316 µM
[31] = second compound 10 µM, first compound 0.000999 µM
[32] = second compound 10 µM, first compound 0.00316 µM
[33] = second compound 10 µM, first compound 0.00999 µM
[34] = second compound 10 µM, first compound 0.0316 µM
[35] = second compound 10 µM, first compound 0.0999 µM
[36] = second compound 10 µM, first compound 0.316 µM
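Note: spheroids exposed to the agents for 7 days before readout.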
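Throughout, for viability, T/C: percent of luminescence signal in DMSO vehicle wells taken as 100% viability.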

Cc1[nH]c2ccccc2c1CCNCc1ccc(/C=C/C(=O)NO)cc1 + Cc1[nH]c2ccc(F)cc2c1-c1nc2c3cccnc3c3ncccc3c2[nH]1
IC50 (second compound 0.0316 µM): > 316 nM
IC50 (second compound 0.1 µM): > 316 nM
IC50 (second compound 0.316 µM): > 316 nM
IC50 (second compound 1 µM): > 316 nM
IC50 (second compound 3.16 µM): > 316 nM
IC50 (second compound 10 µM): > 316 nM
viability, T/C [1]: 97.3%
viability, T/C [2]: 107%
viability, T/C [3]: 92.6%
viability, T/C [4]: 85.9%
viability, T/C [5]: 102%
viability, T/C [6]: 97.9%
viability, T/C [7]: 120%
viability, T/C [8]: 86.1%
viability, T/C [9]: 107%
viability, T/C [10]: 92.9%
viability, T/C [11]: 101%
viability, T/C [12]: 105%
viability, T/C [13]: 115%
viability, T/C [14]: 91.1%
viability, T/C [15]: 95.6%
viability, T/C [16]: 100%
viability, T/C [17]: 91.6%
viability, T/C [18]: 100%
viability, T/C [19]: 92.5%
viability, T/C [20]: 88.8%
viability, T/C [21]: 87.3%
viability, T/C [22]: 93.2%
viability, T/C [23]: 91.9%
viability, T/C [24]: 91.3%
viability, T/C [25]: 84%
viability, T/C [26]: 70.6%
viability, T/C [27]: 87.9%
viability, T/C [28]: 78.5%
viability, T/C [29]: 90.2%
viability, T/C [30]: 85.7%
viability, T/C [31]: 74%
viability, T/C [32]: 80.9%
viability, T/C [33]: 82.6%
viability, T/C [34]: 83.2%
viability, T/C [35]: 91.5%
viability, T/C [36]: 83.3%

CC1COCCN1c1cc(-c2ccnn2C)c2ccnc(-c3ccn[nH]3)c2n1 (stereo not drawn) + CN(C)c1ccc(Nc2c3ccc(NC(=O)CCN4CCCC4)cc3nc3cc(NC(=O)CCN4CCCC4)ccc23)cc1
IC50 (second compound 0.0316 µM): 237 nM
IC50 (second compound 0.1 µM): 261 nM
IC50 (second compound 0.316 µM): 224 nM
IC50 (second compound 1 µM): 248 nM
IC50 (second compound 3.16 µM): 221 nM
IC50 (second compound 10 µM): 229 nM
viability, T/C [4]: 97.9%
viability, T/C (second compound 0.0316 µM, first compound 0.1 µM): 72.7%
viability, T/C [6]: 41.9%
viability, T/C (second compound 0.0316 µM, first compound 1 µM): 34.6%
viability, T/C (second compound 0.0316 µM, first compound 3.16 µM): 35.3%
viability, T/C (second compound 0.0316 µM, first compound 10 µM): 28.8%
viability, T/C [10]: 104%
viability, T/C (second compound 0.1 µM, first compound 0.1 µM): 74.4%
viability, T/C [12]: 43.1%
viability, T/C (second compound 0.1 µM, first compound 1 µM): 32.9%
viability, T/C (second compound 0.1 µM, first compound 3.16 µM): 30.9%
viability, T/C (second compound 0.1 µM, first compound 10 µM): 21.5%
viability, T/C [16]: 97.1%
viability, T/C (second compound 0.316 µM, first compound 0.1 µM): 80.7%
viability, T/C [18]: 36.7%
viability, T/C (second compound 0.316 µM, first compound 1 µM): 30.3%
viability, T/C (second compound 0.316 µM, first compound 3.16 µM): 30.2%
viability, T/C (second compound 0.316 µM, first compound 10 µM): 24.2%
viability, T/C [22]: 89.6%
viability, T/C (second compound 1 µM, first compound 0.1 µM): 89.1%
viability, T/C [24]: 39.5%
viability, T/C (second compound 1 µM, first compound 1 µM): 34.3%
viability, T/C (second compound 1 µM, first compound 3.16 µM): 32.6%
viability, T/C (second compound 1 µM, first compound 10 µM): 26.4%
viability, T/C [28]: 90%
viability, T/C (second compound 3.16 µM, first compound 0.1 µM): 75.1%
viability, T/C [30]: 38.9%
viability, T/C (second compound 3.16 µM, first compound 1 µM): 28.6%
viability, T/C (second compound 3.16 µM, first compound 3.16 µM): 30.1%
viability, T/C (second compound 3.16 µM, first compound 10 µM): 28.8%
viability, T/C [34]: 92.9%
viability, T/C (second compound 10 µM, first compound 0.1 µM): 75.8%
viability, T/C [36]: 40.4%
viability, T/C (second compound 10 µM, first compound 1 µM): 27.8%
viability, T/C (second compound 10 µM, first compound 3.16 µM): 37.1%
viability, T/C (second compound 10 µM, first compound 10 µM): 25.1%

CCc1c2c(nc3ccc(O)cc13)-c1cc3c(c(=O)n1C2)COC(=O)[C@]3(O)CC + Cc1[nH]c2ccc(F)cc2c1-c1nc2c3cccnc3c3ncccc3c2[nH]1
IC50 (second compound 0.0316 µM): 223 nM
IC50 (second compound 0.1 µM): > 316 nM
IC50 (second compound 0.316 µM): > 316 nM
IC50 (second compound 1 µM): 227 nM
IC50 (second compound 3.16 µM): 85.4 nM
IC50 (second compound 10 µM): 167 nM
viability, T/C [1]: 93.4%
viability, T/C [2]: 90.6%
viability, T/C [3]: 88.5%
viability, T/C [4]: 78.6%
viability, T/C [5]: 63.2%
viability, T/C [6]: 44.2%
viability, T/C [7]: 102%
viability, T/C [8]: 93.1%
viability, T/C [9]: 73.2%
viability, T/C [10]: 73.8%
viability, T/C [11]: 65.8%
viability, T/C [12]: 49.3%
viability, T/C [13]: 109%
viability, T/C [14]: 97.1%
viability, T/C [15]: 84.5%
viability, T/C [16]: 76.4%
viability, T/C [17]: 70.2%
viability, T/C [18]: 51.1%
viability, T/C [19]: 90.9%
viability, T/C [20]: 79.8%
viability, T/C [21]: 77.8%
viability, T/C [22]: 70.7%
viability, T/C [23]: 65.6%
viability, T/C [24]: 43.6%
viability, T/C [25]: 89.1%
viability, T/C [26]: 74.3%
viability, T/C [27]: 62.9%
viability, T/C [28]: 65.6%
viability, T/C [29]: 51.9%
viability, T/C [30]: 32.5%
viability, T/C [31]: 73%
viability, T/C [32]: 75.3%
viability, T/C [33]: 65.6%
viability, T/C [34]: 60.7%
viability, T/C [35]: 63.1%
viability, T/C [36]: 39%

Cc1[nH]c2ccccc2c1CCNCc1ccc(/C=C/C(=O)NO)cc1 + Cc1cnc(CNC(=O)c2c(=O)c3ccc(N4CCCN(C)CC4)nc3n3c2sc2ccccc23)cn1
IC50 (second compound 0.0316 µM): > 316 nM
IC50 (second compound 0.1 µM): > 316 nM
IC50 (second compound 0.316 µM): > 316 nM
IC50 (second compound 1 µM): > 316 nM
IC50 (second compound 3.16 µM): > 316 nM
IC50 (second compound 10 µM): 205 nM
viability, T/C [1]: 101%
viability, T/C [2]: 92.8%
viability, T/C [3]: 99%
viability, T/C [4]: 90.6%
viability, T/C [5]: 81.7%
viability, T/C [6]: 63.7%
viability, T/C [7]: 104%
viability, T/C [8]: 100%
viability, T/C [9]: 87.5%
viability, T/C [10]: 93.9%
viability, T/C [11]: 85.9%
viability, T/C [12]: 59.8%
viability, T/C [13]: 92.7%
viability, T/C [14]: 85.4%
viability, T/C [15]: 89.6%
viability, T/C [16]: 76.2%
viability, T/C [17]: 80.8%
viability, T/C [18]: 65.2%
viability, T/C [19]: 86.8%
viability, T/C [20]: 79.6%
viability, T/C [21]: 80.4%
viability, T/C [22]: 71.8%
viability, T/C [23]: 83.1%
viability, T/C [24]: 55.7%
viability, T/C [25]: 73.4%
viability, T/C [26]: 70.1%
viability, T/C [27]: 81.4%
viability, T/C [28]: 74.1%
viability, T/C [29]: 73.7%
viability, T/C [30]: 53.9%
viability, T/C [31]: 70%
viability, T/C [32]: 68.7%
viability, T/C [33]: 64.2%
viability, T/C [34]: 67%
viability, T/C [35]: 67.5%
viability, T/C [36]: 39.5%

— PubChem BioAssay AID2060510 (Molecular Pharmacology Branch, DTP, NCI, 2025)
